# PMC8286840, “Identifying SARS-CoV-2 antiviral compounds by screening for small molecule inhibitors of Nsp3 papain-like protease” (Biochemical Journal, 2021)
# Counter-ions that a name gives are not always drawn. Like-named read-outs stand apart in the source and are kept apart here.
# How the values were obtained:
# [1] = target: T1, SARS-CoV-2 PLpro (nsp3 1564–1878) (Severe acute respiratory syndrome coronavirus 2, UniProt P0DTD1); assay: biochemical; parameters: FRET-quenched peptide (Pro3) cleavage by PLpro, 10 min pre-incubation, slope over 20 min, normalised to no-compound control; conditions: low concentration screen, read-out: % of control remaining
# [2] = target: T1, SARS-CoV-2 PLpro (nsp3 1564–1878); assay: biochemical; parameters: FRET-quenched peptide (Pro3) cleavage by PLpro, 10 min pre-incubation, slope over 20 min, normalised to no-compound control; conditions: high concentration screen, read-out: % of control remaining
smiles,measurement,setting,value
OC[C@H]1O[C@@H](n2cnc3c(NCCc4c[nH]c5ccccc45)ncnc32)[C@H](O)[C@@H]1O [A2AR-agonist-1],remaining activity at 1.25 µM,[1]; Well no.=8653,105%
same,remaining activity at 3.75 µM,[2]; Well no.=8653,105%
NC[C@@H]1O[C@H](C23CC4CC(CC(C4)C2)C3)Cc2c1ccc(O)c2O [A-77636 hydrochloride],remaining activity at 1.25 µM,[1]; Well no.=212,102%
same,remaining activity at 3.75 µM,[2]; Well no.=212,99.3%
Cc1[nH]nc2ccc(-c3cncc(OC[C@@H](N)Cc4ccccc4)c3)cc12 [A-674563],remaining activity at 1.25 µM,[1]; Well no.=2991,97%
same,remaining activity at 3.75 µM,[2]; Well no.=2991,99.1%
COc1ccc(CC(=O)NC(N=C(NC#N)Nc2cccc3ncccc23)C(C)(C)C)cc1OC (stereo not shown) [A-740003],remaining activity at 1.25 µM,[1]; Well no.=5421,92%
same,remaining activity at 3.75 µM,[2]; Well no.=5421,96.3%
COc1cc(NC(=O)c2ccc(-c3ccc(Cl)cc3)o2)cc(OC)c1 [A-803467],remaining activity at 1.25 µM,[1]; Well no.=5117,105%
same,remaining activity at 3.75 µM,[2]; Well no.=5117,103%
CCC(=O)c1cc(-c2ccc(Cl)cc2)n(-c2ccc(S(N)(=O)=O)cc2)c1C [A-867744],remaining activity at 1.25 µM,[1]; Well no.=8320,96.8%
same,remaining activity at 3.75 µM,[2]; Well no.=8320,94%
CN(C)CC#Cc1ccc(OCCCc2sc(N3CCc4cccc(C(=O)Nc5nc6ccccc6s5)c4C3)nc2C(=O)O)c(F)c1 [A-1155463],remaining activity at 1.25 µM,[1]; Well no.=6344,96.3%
same,remaining activity at 3.75 µM,[2]; Well no.=6344,97.3%
Cc1nn(C)c(COc2ccc(N3CCN(S(=O)(=O)N(C)C)CC3)cc2)c1-c1cccc2c(CCCOc3cccc4ccccc34)c(C(=O)O)n(CCN3CCOCC3)c12 [A-1210477],remaining activity at 1.25 µM,[1]; Well no.=6970,99.5%
same,remaining activity at 3.75 µM,[2]; Well no.=6970,101%
Cc1c(-c2ccc(N3CCc4cccc(C(=O)Nc5nc6ccccc6s5)c4C3)nc2C(=O)O)cnn1CC12CC3CC(CC(C3)C1)C2 [A-1331852],remaining activity at 1.25 µM,[1]; Well no.=6592,102%
same,remaining activity at 3.75 µM,[2]; Well no.=6592,93.5%
CC1=C(C)C(=O)C(CCCCC#CCCCC#CCO)=C(C)C1=O [AA-861],remaining activity at 1.25 µM,[1]; Well no.=109,106%
same,remaining activity at 1.25 µM,[1]; Well no.=3941,105%
same,remaining activity at 3.75 µM,[2]; Well no.=109,103%
same,remaining activity at 3.75 µM,[2]; Well no.=3941,102%
CCCCC/C=C\C/C=C\C/C=C\C/C=C\CCCC(=O)C(F)(F)F [AACOCF3],remaining activity at 1.25 µM,[1]; Well no.=4486,102%
same,remaining activity at 3.75 µM,[2]; Well no.=4486,102%
CNC(=O)[C@H]1O[C@@H](n2cnc3c(NCc4ccc(N)cc4)ncnc32)[C@H](O)[C@@H]1O [AB-MECA],remaining activity at 1.25 µM,[1]; Well no.=306,87.3%
same,remaining activity at 1.25 µM,[1]; Well no.=8699,95.8%
same,remaining activity at 3.75 µM,[2]; Well no.=306,87.8%
same,remaining activity at 3.75 µM,[2]; Well no.=8699,98.3%
C[C@@H]1CCCN1CCc1cc2cc(-c3ccc(C#N)cc3)ccc2o1 [ABT-239],remaining activity at 1.25 µM,[1]; Well no.=8049,103%
same,remaining activity at 3.75 µM,[2]; Well no.=8049,101%
Cc1cc([C@@H]2CCCN2C)on1 [ABT-418],remaining activity at 1.25 µM,[1]; Well no.=307,97.8%
same,remaining activity at 3.75 µM,[2]; Well no.=307,99.2%
O=C(c1cc(S(=O)(=O)Nc2ccccc2F)c(F)cc1Cl)N1CCN2CCC[C@@H]2C1 [ABT-639],remaining activity at 1.25 µM,[1]; Well no.=7880,94.2%
same,remaining activity at 3.75 µM,[2]; Well no.=7880,95.4%
CN(C)CC[C@H](CSc1ccccc1)Nc1ccc(S(=O)(=O)NC(=O)c2ccc(N3CCN(Cc4ccccc4-c4ccc(Cl)cc4)CC3)cc2)cc1[N+](=O)[O-] [ABT-737],remaining activity at 1.25 µM,[1]; Well no.=2692,102%
same,remaining activity at 1.25 µM,[1]; Well no.=6348,99.7%
same,remaining activity at 1.25 µM,[1]; Well no.=8314,98.5%
same,remaining activity at 3.75 µM,[2]; Well no.=2692,101%
same,remaining activity at 3.75 µM,[2]; Well no.=6348,96.5%
same,remaining activity at 3.75 µM,[2]; Well no.=8314,97.8%
COc1ccc(S(=O)(=O)Nc2cccnc2Nc2ccc(O)cc2)cc1 [ABT-751],remaining activity at 1.25 µM,[1]; Well no.=5226,91.8%
same,remaining activity at 3.75 µM,[2]; Well no.=5226,92.1%
Cc1ccc(F)c(NC(=O)Nc2ccc(-c3cccc4[nH]nc(N)c34)cc2)c1 [ABT-869],remaining activity at 1.25 µM,[1]; Well no.=2740,94.6%
same,remaining activity at 3.75 µM,[2]; Well no.=2740,93.3%
C[C@]1(c2nc3c(C(N)=O)cccc3[nH]2)CCCN1 [ABT-888 (Veliparib)],remaining activity at 1.25 µM,[1]; Well no.=5222,95.8%
same,remaining activity at 3.75 µM,[2]; Well no.=5222,94.2%
O=C(Cc1ccc(Cl)c(Cl)c1)OCCN1CCCC1 [AC 915 oxalate],remaining activity at 1.25 µM,[1]; Well no.=61,104%
same,remaining activity at 3.75 µM,[2]; Well no.=61,102%
C/C(=N\NC(=O)C(NC(=O)c1ccccc1)c1n[nH]c(=O)c2ccccc12)c1cccc(Br)c1 (stereo not shown) [AC-55541],remaining activity at 1.25 µM,[1]; Well no.=6997,106%
same,remaining activity at 3.75 µM,[2]; Well no.=6997,106%
COc1ccc(S(=O)(=O)N2CCC[C@H]2C(=O)Nc2cc(C)cc(C)c2)cc1 [ACT-462206],remaining activity at 1.25 µM,[1]; Well no.=6052,95.5%
same,remaining activity at 3.75 µM,[2]; Well no.=6052,90.9%
CCN(CC)C(=O)c1ccc(C2=CC3(CCNCC3)Oc3cccc(O)c32)cc1 [ADL5859 HCl],remaining activity at 1.25 µM,[1]; Well no.=5051,101%
same,remaining activity at 3.75 µM,[2]; Well no.=5051,98.3%
CCN(CC)C(=O)c1ccc(C2=CC3(CCNCC3)Oc3cccc(O)c32)cc1 [ADL-5859],remaining activity at 1.25 µM,[1]; Well no.=8013,92.2%
same,remaining activity at 3.75 µM,[2]; Well no.=8013,85.8%
CCN1CCN(Cc2ccc(-c3cc4c(N[C@H](C)c5ccccc5)ncnc4[nH]3)cc2)CC1 [AEE788 (NVP-AEE788)],remaining activity at 1.25 µM,[1]; Well no.=5247,102%
same,remaining activity at 3.75 µM,[2]; Well no.=5247,102%
CN(C)Cc1ccc(-c2nc3cccc4c3n2CCNC4=O)cc1 [AG14361],remaining activity at 1.25 µM,[1]; Well no.=5272,98.1%
same,remaining activity at 3.75 µM,[2]; Well no.=5272,97.3%
N#CC(C#N)=C(N)/C(C#N)=C/c1ccc(O)cc1 [AG 112],remaining activity at 1.25 µM,[1]; Well no.=2609,97%
same,remaining activity at 3.75 µM,[2]; Well no.=2609,91.5%
"N#C/C(=C\c1ccc(O)c(O)c1)C(=O)NCc1ccccc1 [AG 490 - (E)-2-Cyano-3-(3,4-dihydrophenyl)-N-(phenylmethyl)-2-propenamide]",remaining activity at 1.25 µM,[1]; Well no.=2332,95%
same,remaining activity at 3.75 µM,[2]; Well no.=2332,93.5%
N#C/C(=C\c1ccc(O)c(O)c1)C(=O)NCc1ccccc1 [AG 490],remaining activity at 1.25 µM,[1]; Well no.=2607,95.5%
same,remaining activity at 3.75 µM,[2]; Well no.=2607,97%
CC(C)(C)c1cc(C=C(C#N)C#N)cc(Br)c1O [AG 1024],remaining activity at 1.25 µM,[1]; Well no.=2307,104%
same,remaining activity at 3.75 µM,[2]; Well no.=2307,104%
Cc1cc2ncc(-c3ccccc3)nc2cc1C [AG 1295],remaining activity at 1.25 µM,[1]; Well no.=2611,97.5%
same,remaining activity at 3.75 µM,[2]; Well no.=2611,97.7%
COc1cc2ncc(-c3ccccc3)nc2cc1OC [AG 1296],remaining activity at 1.25 µM,[1]; Well no.=2613,91.6%
same,remaining activity at 3.75 µM,[2]; Well no.=2613,90.5%
COc1cc2ncnc(Nc3cccc(Cl)c3)c2cc1OC [AG 1478],remaining activity at 1.25 µM,[1]; Well no.=2643,97.4%
same,remaining activity at 3.75 µM,[2]; Well no.=2643,99.8%
Cc1nc2cc3nc(-c4cccs4)cnc3cc2n1C [AGL 2043],remaining activity at 1.25 µM,[1]; Well no.=2309,104%
same,remaining activity at 3.75 µM,[2]; Well no.=2309,103%
